From US20210047278A1, “E3 UBIQUITIN LIGASE AGONISTS, PHARMACEUTICAL COMPOSITIONS INCLUDING THE E3 UBIQUITIN LIGASE AGONISTS, RELATED METHODS OF USE” (FRED HUTCHINSON CANCER RESEARCH CENTER, priority 2018, published 2021)
Read-outs that look alike come from different tables or passages of the source.

Columns and labels:
Type in all cases: binding
[1] = molecular target: T1, FBW7^ARG+pCycE (Homo sapiens, UniProt Q969H0, R505L); test: FBW7^ARG-cyclin E agonist ALPHAscreen (primary PRUN, confirmation CRUN1, dose-response DRUN); conditions: for EC50 / Emax: DRUN dose-response; for Emax: relative to WT-FBW7+pCycE, read-out: FBW7 ACT Averaged Max % Response
T1 construct: GST (TEV site and flexible linker) (N, cleaved yes); made in house; host or cells: SF9 insect cells (baculovirus)
Outline: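 ALPHAscreen agonist assay: His-tagged FBW7 R505L on Ni-chelate acceptor beads (25 nM FBW7, 25 nM biotinylated phospho-cyclin E peptide, 10 µg/ml beads), streptavidin donor beads, ALPHA signal read. Primary and confirmation runs at 26.1 μM; dose-response as 10-point 3-fold series to ~87 μM, in triplicate; activation relative to WT-FBW7+pCycE.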

[2] = molecular target: T2, FBW7^ARG (RLFBW7) alone (Homo sapiens, UniProt Q969H0, R505L); test: Counterscreen 1 ALPHAscreen with FBW7^ARG alone (CSRUN1/DCSRUN1); conditions: dose-response counterscreen; for Emax: read-out: RLFBW7 ACT DCSRUN1 Averaged Max % Response
T2 construct: GST (TEV site and flexible linker) (N, cleaved yes); made in house; host or cells: SF9 insect cells (baculovirus)
Outline: (§1)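 ALPHAscreen counterscreens, read on ENVISION, omitting either FBW7^ARG or the phosphorylated cyclin E peptide to flag general ALPHAscreen agonists. Compounds tested in triplicate as 10-point 3-fold dilutions up to approximately 87 μM. Activation expressed relative to WT-FBW7+pCycE, with 10% set as positive.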

[3] = tested on: pCycE alone; test: Counterscreen 2 ALPHAscreen with cyclin E phosphopeptide alone (CSRUN2/DCSRUN2); conditions: for CyCEP ACT DCSRUN2 Averaged Max % Response: activation relative to WT-FBW7+pCycE, averaged maximum; for EC50: dose-response, triplicate, 10 point 3-fold dilutional series, read-out: CyCEP ACT DCSRUN2 Final EC50
Outline: as §1

[4] = raw curve fit, read-out: FBW7 ACT EC50 Curve Fit Raw, Molar
[5] = triplicate, 10 point 3-fold dilution, max approx. 87 μM, read-out: FBW7 ACT Final EC50, Molar
[6] = confirmation assay, triplicate, single concentration 26.1 μM, read-out: FBW7 ACT CRUN1 Avg % Response and Stdev
[7] = primary screen, 1536-well, 26.1 μM, FBW7^ARG + pCycE degron peptide, high control wt-FBW7+pCycE, read-out: FBW7 ACT PRUN % Response
[8] = raw curve fit, read-out: RLFBW7 ACT DCSRUN1 EC50 Curve Fit Raw
[9] = read-out: RLFBW7 ACT DCSRUN1 Final EC50

T1 sequence (Q969H0 64-707 R505L): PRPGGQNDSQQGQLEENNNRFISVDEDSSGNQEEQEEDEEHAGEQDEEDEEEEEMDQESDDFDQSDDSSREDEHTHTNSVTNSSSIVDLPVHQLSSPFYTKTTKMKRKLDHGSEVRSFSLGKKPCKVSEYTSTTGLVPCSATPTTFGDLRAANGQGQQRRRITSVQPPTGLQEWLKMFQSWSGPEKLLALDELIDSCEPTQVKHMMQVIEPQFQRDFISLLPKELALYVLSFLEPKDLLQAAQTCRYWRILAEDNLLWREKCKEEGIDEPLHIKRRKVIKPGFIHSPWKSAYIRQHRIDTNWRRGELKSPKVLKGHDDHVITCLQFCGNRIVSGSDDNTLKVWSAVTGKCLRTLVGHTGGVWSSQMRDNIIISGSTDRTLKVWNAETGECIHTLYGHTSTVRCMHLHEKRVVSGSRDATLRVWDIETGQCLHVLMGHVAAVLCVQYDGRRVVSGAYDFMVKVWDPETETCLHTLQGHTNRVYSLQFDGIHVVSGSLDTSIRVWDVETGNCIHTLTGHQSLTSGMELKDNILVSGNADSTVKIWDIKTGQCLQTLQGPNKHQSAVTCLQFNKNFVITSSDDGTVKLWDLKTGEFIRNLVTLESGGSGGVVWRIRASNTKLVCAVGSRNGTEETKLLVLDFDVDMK
T1 sequence (P63208 2-163 partner): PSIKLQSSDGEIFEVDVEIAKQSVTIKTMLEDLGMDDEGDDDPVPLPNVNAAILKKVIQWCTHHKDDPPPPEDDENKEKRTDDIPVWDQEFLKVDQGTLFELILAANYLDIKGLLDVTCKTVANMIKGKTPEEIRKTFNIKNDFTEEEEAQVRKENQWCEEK
T2 sequence (Q969H0 64-707 R505L): as the sequence (Q969H0 64-707 R505L) above
T2 sequence (P63208 2-163 partner): as the sequence (P63208 2-163 partner) above

SMILES | EC50 [1, 4] [µM] | Emax [1] [%] | EC50 [1, 5] [µM] | activation at 26.1 µM [1, 6] [%] | activation at 26.1 µM [1, 7] [%] | EC50 [2, 8] [µM] | Emax [2] [%] | EC50 [2, 9] [µM] | CyCEP ACT DCSRUN2 Averaged Max % Response [3] [%] | EC50 [3] [µM]
CCC(C)OC(=O)C1=C(C)NC2=C(C(=O)CC(c3ccc(Cl)cc3)C2)C1c1cccc(Cl)c1 (stereo not drawn) [SR-01000422821-1] | 16 | 9.85 | > 45.8 | 6.44 ± 0.56 | 1.86 | 24.1 | 4.29 | > 45.8 | 0.13 | > 45.8
COc1ccccc1C1C(C(=O)OC2CCCC2)=C(C)NC2=C1C(=O)CC(c1ccccc1)C2 (stereo not drawn) [SR-01000422836-1] | 2400 | 10.3 | > 45.9 | 5.59 ± 0.74 | 2.6 | 16.4 | 4.23 | > 45.9 | 0.14 | > 45.9
CCC(C)OC(=O)C1=C(C)NC2=C(C(=O)CC(c3ccccc3)C2)C1c1cccc2ccccc12 (stereo not drawn) [SR-01000423185-1] | 15.9 | 13 | > 47.6 | 5.54 ± 0.29 | 2.18 |  | 8.99 | > 47.6 | 11.24 | > 47.6
CC1=C(C(=O)OCc2ccccc2)C(c2cn(-c3ccccc3)nc2-c2ccc(F)cc2)C(C(=O)OCc2ccccc2)=C(C)N1 [SR-01000425637-1] | 0.0034 | 8.34 | > 34.2 | 4.66 ± 1.07 | 1.93 |  | 1.54 | > 34.2 | 2.59 | > 34.2
CCSCCOC(=O)C1=C(C)NC2=C(C(=O)CC(c3ccccc3)C2)C1c1ccc(OC)cc1OC (stereo not drawn) [SR-01000425645-1] | 0.0036 | 7.92 | > 41.4 | 5.16 ± 0.69 | 2.28 | 0.0044 | 0.91 | > 41.4 | 2.61 | > 41.4
COc1ccc(COC(=O)C2=C(C)NC3=C(C(=O)CC(C)(C)C3)C2c2ccccc2)cc1 (stereo not drawn) [SR-01000427708-1] | 23.8 | 8.75 | > 62.2 | 5.27 ± 1.17 | 2.58 | 0.0056 | 1.53 | > 62.2 | 1.77 | > 62.2
COc1ccc(N2C(=O)CC(SCCN)C2=O)cc1 (stereo not drawn) [SR-01000428800-1] | 15.1 | 9.73 | > 87.4 | 11.2 ± 1.65 | 2.51 | 0.0102 | 1.48 | > 87.4 | 2.47 | > 87.4
Fc1ccccc1CSc1nnnn1-c1ccccc1F [SR-01000432842-1] | 0.0082 | 8.63 | > 72.9 | 5.32 ± 2.7 | 2.34 | 0.0102 | 1.65 | > 72.9 | 2.47 | > 72.9
CCOC(=O)C1CCN(C(=O)Nc2ccc(NC(=O)C3CCN(C(=O)OCC)CC3)cc2)CC1 [SR-01000451467-1] | 9.6 | 15.5 | > 45.3 | 5.81 ± 0.4 | 6.08 | 0.0074 | 1.76 | > 45.3 | 2.82 | > 45.3
CCOc1ccc(Br)cc1C1C2=C(CCCC2=O)N(CC(=O)O)C2=C1C(=O)CCC2 [SR-01000476712-1] | 0.0054 | 8.52 | > 43.6 | 3.84 ± 1.06 | 1.93 | 0.0052 | 1.87 | > 43.6 | 2.30 | > 43.6
Cc1ccc(-c2nnc(N3CCN(C(=O)c4ccco4)CC3)c3ccccc23)cc1 [SR-01000505133-1] | 19.6 | 16.5 | > 54 | 2.31 ± 0.38 | 2.28 | 0.008 | 2.77 | > 54 | 1.77 | > 54
